# Source: patent publication US10240133B2, “ERK-derived peptides and uses thereof” (Yeda Research and Development Co. Ltd., priority 2013, dated 2019)
# What was measured:
# Type in all cases: cell-based
# [1] = test system: RSK; assay: Western blotting of RSK phosphorylation; conditions: four distinct cell lines
# Procedure: (§1) (A) EPE peptide prevents ERK1/2-importin7 interaction. HeLa cells were serum starved (0.1%, 16 hours), pretreated with EPE peptide, scrambled peptide (10 μM, 2 hours) or DMSO, and then stimulated with TPA (250 nM, 15 min). ERK1 were precipitated with αgERK1 Ab; importin7 co-immunoprecipitated with ERK1 was detected by WB with αimportin7 Ab. […] T47D, HeLa, MDA-MB-231 and A2352 cells were serum starved (0.1%, 16 hours), pretreated with EPE peptide, scrambled peptide (10 μM, 2 hours) or DMSO control, and then stimulated with TPA (250 nM, indicated times). Cell extracts were subjected to Western blot analysis with the indicated Abs. (C) EPE peptide inhibits phosphorylation of c-Myc and Elk1 in B-Raf melanomas. A2158 and A2352 cells were treated with scrambled and EPE peptide for two hours and then stimulated with the indicated concentration of TPA for 30 min. […] (D) Quantification of some of the results in B and C. […]
# (§2) (i) Preparation of cellular extracts for Western Blotting: Cells were rinsed twice with ice-cold PBS and scraped into Radio-immunoprecipitation assay buffer (RIPA; 137 mM NaCl, 20 mM Tris (pH 7.4), 10% glycerol, 1% Triton X-100, 0.5% deoxycholate, 0.1% SDS, 2 mM EDTA, 1 mM PMSF, and 20 μM leupeptin). The extracts were centrifuged (20,000×g, 15 min, 4° C.), and the supernatants were further analyzed by Western blotting. […]
# [2] = test system: c-Myc; assay: Western blotting of c-Myc phosphorylation; conditions: A2158 and A2352 B-Raf melanomas
# Procedure: as §1, §2
# [3] = test system: all other transformed cell lines examined (A2352, Hela, MDA-MB-231, DU-145); assay: Cell viability, EPE peptide compared with PLX4032; conditions: EPE 10 μM, PLX4032 1 μM, 1% FCS
# Procedure: (§3) FIGS. 3A-3B illustrate that EPE peptide prevents proliferation of cancer but not normal cells. (A) Effect of the EPE peptide on the proliferation of various cell lines. Sixteen cancer and four “normal” immortalized cell lines were treated with either EPE or scrambled peptides as described above. Viable cells were assayed by Methylene Blue at 48 or 72 hours after cell seeding. The data from at least three independent experiments is presented as percent of the amount of viable cells/initial cell number, where initial cell number was considered as 100. (B) Comparison of the effects of the EPE-peptide and Raf inhibitor PLX4032 on cell viability. NHEM-Ad, LOXIMVI, A2352, Hela MDA-MB-231, and DU-145 cells were treated with EPE peptide, scrambled peptide, (10 μM), PLX4032 (1 μM), DMSO control, or no treatment at 1% FCS. The number of cells was detected as above. The graphs present the kinetic of cell growth at the indicated times. All experiments were repeated 3 times in triplicates.
# (§4) All cells, except of MCF-10A, were seeded into 12-well cell plates in 1% FBS medium. MCF-10A cells were seeded in their complete medium diluted 5 fold. DMSO, Scr peptide, EPE peptide, or U0126 (final concentration of 10 μM each) were added to the appropriated wells four hours later. Every day medium was changed to fresh one containing the same agents. The number of viable cells was measured by Methylene Blue assay at 72 h after cell seeding. Shortly, cells were fixed with 4% Formaldehyde for 2 h at 23° C., washed once with 0.1M Borate Buffer pH 8.5 and stained with of 1% Methylene Blue in 0.1M Borate Buffer for 10 min. Color was extracted by adding 0.1 M HCl for 3 h at 23° C., and examined at 595 nm. For time course experiments, viable cells were measured at 0, 24, 48, 72 and 96 h after cell seeding. For dose response experiments we treaded the cells with 0.1, 1, 3, 10, or 30 μM of peptides for 72 h, as described above.
# [4] = test system: non-transformed melanocytes (NHEM-Ad); assay: Cell viability, EPE peptide compared with PLX4032; conditions: EPE 10 μM, PLX4032 1 μM, 1% FCS
# Procedure: as §3, §4
# [5] = test system: N-Ras transformed melanoma cells LOXIMVI; assay: Cell viability, EPE peptide compared with PLX4032; conditions: EPE 10 μM, PLX4032 1 μM, 1% FCS
# Procedure: as §3, §4
# [6] = test system: AKT; assay: Western blotting of AKT phosphorylation
# Procedure: as §1, §2
# [7] = target: T1, interaction of Imp7 with ERK (Homo sapiens, UniProt O95373); assay: Coimmunoprecipitation of Imp7 with ERK; conditions: HeLa cells; 10 μM, 2 hours; TPA
# T1 construct: endogenous in cells; host or cells: HeLa
# Procedure: as §1, §2
# T1 sequence (O95373 whole entry): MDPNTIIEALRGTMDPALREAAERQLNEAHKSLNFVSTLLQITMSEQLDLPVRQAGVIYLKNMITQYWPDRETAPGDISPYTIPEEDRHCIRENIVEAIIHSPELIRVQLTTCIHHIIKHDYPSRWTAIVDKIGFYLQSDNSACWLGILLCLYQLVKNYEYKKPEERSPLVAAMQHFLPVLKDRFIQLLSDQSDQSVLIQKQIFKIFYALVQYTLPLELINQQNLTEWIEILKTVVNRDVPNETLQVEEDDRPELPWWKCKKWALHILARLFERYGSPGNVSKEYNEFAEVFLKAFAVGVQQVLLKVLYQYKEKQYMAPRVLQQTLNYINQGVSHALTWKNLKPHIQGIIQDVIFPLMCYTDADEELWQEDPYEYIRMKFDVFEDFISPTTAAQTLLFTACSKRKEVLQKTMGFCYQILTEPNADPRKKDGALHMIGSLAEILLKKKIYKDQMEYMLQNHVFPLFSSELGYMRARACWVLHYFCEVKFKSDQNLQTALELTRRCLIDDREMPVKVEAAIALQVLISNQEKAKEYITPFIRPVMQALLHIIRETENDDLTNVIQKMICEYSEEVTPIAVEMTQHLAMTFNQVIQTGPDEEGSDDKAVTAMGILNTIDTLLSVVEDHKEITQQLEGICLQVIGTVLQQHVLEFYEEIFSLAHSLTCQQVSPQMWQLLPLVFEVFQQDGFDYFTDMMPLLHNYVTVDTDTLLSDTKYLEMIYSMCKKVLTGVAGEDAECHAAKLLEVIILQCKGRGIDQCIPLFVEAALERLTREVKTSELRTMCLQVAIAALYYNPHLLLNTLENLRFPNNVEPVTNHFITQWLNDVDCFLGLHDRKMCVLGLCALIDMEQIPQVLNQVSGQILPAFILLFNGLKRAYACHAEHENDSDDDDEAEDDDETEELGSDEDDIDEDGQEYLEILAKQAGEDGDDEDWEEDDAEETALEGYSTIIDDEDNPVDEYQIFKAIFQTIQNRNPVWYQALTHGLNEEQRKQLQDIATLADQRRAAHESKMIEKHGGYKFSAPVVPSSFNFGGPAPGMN
sequence,measurement,setting,value
"GQLNHILGILGEPEQED (Synthetic peptide (EPE)) [EPE peptide, NTS-derived peptide with phosphomimetic EPE motif]",downstream activity of RSK,[1],no effect
same,phosphorylation of c-Myc,[2],did inhibit
same,effect on viability relative to PLX4032,[3],"at least as good, or even better, than that of PLX4032"
same,viability,[4],does not have any significant effect
same,viability,[5],able to reduce the viability
same,activation of AKT in resistant melanoma cells,[6]; data not shown,No significant effects
same,basal or stimulated phosphorylation of AKT,[6]; shortly after stimulation or longer time periods after treatment,no effect on the basal or stimulated phosphorylation of AKT
same,interaction of Imp7 with ERK,[7],prevented the interaction of Imp7 with ERK
